According to patent US8906925B2, “Pyrido[4,3-B]indoles containing rigid moieties” (Medivation Technologies, Inc., priority 2008, dated 2014):
Like-named read-outs stand apart in the source and are kept apart here.

Columns and labels:
[1] = target: T1, human recombinant adrenergic α1D receptor (Homo sapiens, UniProt P25100); experiment: Adrenergic α1D radioligand binding ([3H]Prozosin); details: read-out: Inhibition of ligand binding, Adrenergic α1D
T1 construct: expressed in transfected cells; host or cells: human embryonic kidney (HEK-293) cells
T1 sequence (P25100 1-572): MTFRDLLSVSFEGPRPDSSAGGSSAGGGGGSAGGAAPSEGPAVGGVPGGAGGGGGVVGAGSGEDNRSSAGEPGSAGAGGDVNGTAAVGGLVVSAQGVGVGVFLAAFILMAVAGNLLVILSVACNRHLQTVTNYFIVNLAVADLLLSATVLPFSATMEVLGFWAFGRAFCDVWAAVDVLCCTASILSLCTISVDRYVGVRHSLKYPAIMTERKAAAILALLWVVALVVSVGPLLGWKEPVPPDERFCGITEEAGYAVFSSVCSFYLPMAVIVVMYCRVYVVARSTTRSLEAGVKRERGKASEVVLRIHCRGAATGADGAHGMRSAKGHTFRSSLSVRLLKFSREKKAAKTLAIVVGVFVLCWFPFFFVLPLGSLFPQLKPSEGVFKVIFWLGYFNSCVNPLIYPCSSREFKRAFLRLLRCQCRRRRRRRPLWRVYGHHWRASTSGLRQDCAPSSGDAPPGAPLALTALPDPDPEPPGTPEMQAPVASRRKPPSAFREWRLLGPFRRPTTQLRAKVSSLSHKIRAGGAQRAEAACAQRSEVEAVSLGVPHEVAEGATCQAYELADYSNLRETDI
Method: Compounds of invention were incubated with 0.6 nM [^3H]Prozosin for 60 min. at 25° C. Non-specific binding was estimated in the presence of 10 μM phentolamine. Receptor proteins were filtered and washed, the filters were then counted to determine [^3H]Prozosin specifically bound. Compounds were screened at 1 μM or lower, using 1% DMSO as vehicle. Biochemical assay results are presented as the percent inhibition of specific binding in Table 9.

[2] = target: T2, human recombinant adrenergic α2A receptor (Homo sapiens, UniProt P08913); experiment: Adrenergic α2A radioligand binding ([3H]MK-912); details: read-out: Inhibition of ligand binding, Adrenergic α2A
T2 construct: expressed in transfected cells; host or cells: insect Sf9 cells
T2 sequence (P08913 1-465): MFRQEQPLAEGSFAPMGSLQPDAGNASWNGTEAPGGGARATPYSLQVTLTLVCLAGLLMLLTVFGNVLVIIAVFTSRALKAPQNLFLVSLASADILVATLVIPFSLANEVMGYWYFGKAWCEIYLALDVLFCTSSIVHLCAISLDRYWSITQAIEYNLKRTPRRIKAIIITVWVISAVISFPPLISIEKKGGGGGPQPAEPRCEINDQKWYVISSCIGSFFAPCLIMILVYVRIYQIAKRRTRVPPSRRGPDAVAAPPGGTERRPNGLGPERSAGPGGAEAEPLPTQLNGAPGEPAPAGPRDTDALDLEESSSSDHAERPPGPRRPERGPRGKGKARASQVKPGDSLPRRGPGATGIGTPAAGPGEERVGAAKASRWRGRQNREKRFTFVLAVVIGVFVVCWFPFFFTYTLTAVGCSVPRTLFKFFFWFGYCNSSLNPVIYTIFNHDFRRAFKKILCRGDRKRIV
Method: To evaluate in radioligand binding assays the activity of compounds of the invention, human recombinant adrenergic α2A receptor expressed in insect Sf9 cells (Uhlen S et al. J Pharmacol Exp Ther. 271:1558, 1994) in a modified Tris-HCl buffer (50 mM Tris-HCl, pH 7.4, 12.5 mM MgCl2, 2 mM EDTA) was used. Compounds of invention were incubated with 1 nM [^3H]MK-912 for 60 min. at 25° C. MK912 is (2S-trans)-1,3,4,5′,6,6′,7,12b-octahydro-1′,3′-dimethyl-spiro[2H-benzofuro[2,3-a]quinolizine-2,4′(1′H)-pyrimidin]-2′(3′H)-one hydrochloride Non-specific binding was estimated in the presence of 10 μM WB-4101 (2-(2,6-Dimethoxyphenoxyethyl)aminomethyl-1,4-benzodioxane hydrochloride). Receptor proteins were filtered and washed, the filters were then counted to determine [^3H]MK-912 specifically bound. Compounds were screened at 1 μM or lower, using 1% DMSO as vehicle. Biochemical assay results are presented as the percent inhibition of specific binding in Table 9.

[3] = target: T3, human recombinant serotonin (5-Hydroxytryptamine) 5-HT2A receptor (Homo sapiens, UniProt P28223); experiment: Serotonin 5-HT2A radioligand binding ([3H]Ketanserin); details: read-out: Inhibition of ligand binding, Serotonin 5-HT2A (percent inhibition of specific binding), compound at 1 μM
T3 construct: expressed in transfected cells; host or cells: Chinese hamster ovary (CHO-K1) cells
Method: Compounds of the invention were incubated with 0.5 nM [^3H]Ketanserin for 60 min. at 25° C. Non-specific binding was estimated in the presence of 1 μM Mianserin. Receptor proteins were filtered and washed, the filters were then counted to determine [^3H]Ketanserin specifically bound.

[4] = target: T4, human recombinant serotonin (5-Hydroxytryptamine) 5-HT6 receptor (Homo sapiens, UniProt P50406); experiment: Serotonin 5-HT6 radioligand binding ([3H]LSD); details: read-out: Inhibition of ligand binding, Serotonin 5-HT6 (percent inhibition of specific binding); for inhibition at 1 µM: compound at 1 μM
T4 construct: expressed in transfected cells; host or cells: human HeLa cells
Method: Compounds of the invention were incubated with 1.5 nM [3H]Lysergic acid diethylamide (LSD) for 120 min. at 37° C. […] Receptor proteins were filtered and washed, the filters were then counted to determine [3H]LSD specifically bound. Compounds were screened at 1 μM or lower, using 1% DMSO as vehicle. Biochemical assay results are presented as the percent inhibition of specific binding in Table 10.

[5] = target: human recombinant serotonin (5-Hydroxytryptamine) 5-HT7 receptor (Homo sapiens, UniProt P34969); experiment: Serotonin 5-HT7 radioligand binding ([3H]LSD); details: compound at 1 μM; read-out: Inhibition of ligand binding, Serotonin 5-HT7 (percent inhibition of specific binding)
From the text: Receptor proteins were filtered and washed, the filters were then counted to determine [^3H]LSD specifically bound.

[6] = target: T5, human recombinant histamine H2 receptor (Homo sapiens, UniProt P25021); experiment: Histamine H2 radioligand binding ([125I]Aminopotentidine)
T5 construct: expressed in transfected cells; host or cells: Chinese hamster ovary (CHO) K1 cells
Summary of the method: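 Receptor source: human recombinant H2 in CHO-K1 cells, assayed in 50 mM phosphate pH 7.4. Competition against 0.1 nM [125I]aminopotentidine, 120 min, 25 °C; 3 μM tiotidine sets nonspecific binding, filter-bound counts give specific binding.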

[7] = percent inhibition of specific binding, compound at 1 μM
[8] = read-out: Histamine Binding (1 μM) H2, percent inhibition of specific binding, 1 μM

T3 sequence (P28223 whole entry): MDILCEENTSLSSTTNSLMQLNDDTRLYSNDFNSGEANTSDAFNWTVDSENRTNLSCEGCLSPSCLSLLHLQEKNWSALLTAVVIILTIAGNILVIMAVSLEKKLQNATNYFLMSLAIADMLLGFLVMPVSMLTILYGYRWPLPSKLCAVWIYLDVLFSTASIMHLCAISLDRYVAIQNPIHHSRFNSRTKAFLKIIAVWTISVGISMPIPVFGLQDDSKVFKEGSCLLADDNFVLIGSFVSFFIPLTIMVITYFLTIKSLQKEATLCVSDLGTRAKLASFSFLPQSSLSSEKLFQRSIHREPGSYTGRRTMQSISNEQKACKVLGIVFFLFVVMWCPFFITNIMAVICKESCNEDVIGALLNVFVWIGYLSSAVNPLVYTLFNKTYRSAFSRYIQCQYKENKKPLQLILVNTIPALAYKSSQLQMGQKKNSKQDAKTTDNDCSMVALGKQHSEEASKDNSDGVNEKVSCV
T4 sequence (P50406 whole entry): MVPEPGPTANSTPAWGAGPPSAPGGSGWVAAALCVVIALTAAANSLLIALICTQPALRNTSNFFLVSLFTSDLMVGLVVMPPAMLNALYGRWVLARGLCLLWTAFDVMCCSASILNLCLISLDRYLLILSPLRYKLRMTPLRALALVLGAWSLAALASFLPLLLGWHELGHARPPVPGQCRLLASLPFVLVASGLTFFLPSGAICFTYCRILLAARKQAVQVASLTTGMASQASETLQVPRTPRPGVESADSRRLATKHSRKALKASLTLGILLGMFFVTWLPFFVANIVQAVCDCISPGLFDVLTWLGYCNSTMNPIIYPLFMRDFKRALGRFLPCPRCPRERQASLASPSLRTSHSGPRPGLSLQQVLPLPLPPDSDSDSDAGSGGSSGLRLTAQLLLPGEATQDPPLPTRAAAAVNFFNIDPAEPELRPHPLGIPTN
T5 sequence (P25021 whole entry): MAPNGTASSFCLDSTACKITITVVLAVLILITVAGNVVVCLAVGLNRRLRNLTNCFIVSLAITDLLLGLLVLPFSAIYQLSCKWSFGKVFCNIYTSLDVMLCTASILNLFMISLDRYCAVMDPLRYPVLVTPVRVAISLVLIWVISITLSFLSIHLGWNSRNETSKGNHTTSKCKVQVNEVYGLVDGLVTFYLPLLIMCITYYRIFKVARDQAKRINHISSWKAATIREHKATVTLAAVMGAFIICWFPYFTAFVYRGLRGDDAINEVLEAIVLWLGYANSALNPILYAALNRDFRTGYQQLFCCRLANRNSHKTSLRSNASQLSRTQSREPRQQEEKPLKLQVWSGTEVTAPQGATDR
human recombinant serotonin (5-Hydroxytryptamine) 5-HT7 receptor, sequence (P34969 whole entry): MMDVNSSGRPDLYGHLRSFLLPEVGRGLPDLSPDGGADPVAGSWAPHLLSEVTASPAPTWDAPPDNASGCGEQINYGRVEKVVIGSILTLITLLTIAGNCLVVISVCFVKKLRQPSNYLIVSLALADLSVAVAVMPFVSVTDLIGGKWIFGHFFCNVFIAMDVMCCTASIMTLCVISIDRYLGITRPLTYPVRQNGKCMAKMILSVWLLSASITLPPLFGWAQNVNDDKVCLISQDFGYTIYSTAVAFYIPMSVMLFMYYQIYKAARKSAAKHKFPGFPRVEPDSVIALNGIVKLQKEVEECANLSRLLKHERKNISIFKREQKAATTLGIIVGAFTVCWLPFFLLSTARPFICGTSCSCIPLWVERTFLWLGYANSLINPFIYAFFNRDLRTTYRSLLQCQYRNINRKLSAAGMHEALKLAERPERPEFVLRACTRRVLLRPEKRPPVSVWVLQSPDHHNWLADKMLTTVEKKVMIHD

Compound	inhibition at 1 µM [1, 7] [%]	inhibition at 1 µM [2, 7] [%]	inhibition at 1 µM [3] [%]	inhibition at 0.1 µM ([4]; compound at 0.1 μM) [%]	inhibition at 1 µM [4] [%]	inhibition at 1 µM [5] [%]	inhibition at 1 µM ([6]; read-out: Histamine Binding (1 μM) H2, percent inhibition of specific binding) [%]	inhibition at 1 µM [1] [%]	inhibition at 1 µM [2] [%]	inhibition at 1 µM [6, 8] [%]
Cc1ccc(C(O)Cn2c3c(c4cc(C)ccc42)CN(C)CC3)cc1 (racemic) [Compound 43, racemic-2-(1,2,3,4-tetrahydro-2,8-dimethylpyrido[4,3-b]indol-5-yl)-1-p-tolylethanol]	87	98	100	62	95	98	–	–	–	–
Cc1ccc2[nH]c3c(c2c1)CN(C)CC3 [Compound 3, 2,8-Dimethyl-2,3,4,5-tetrahydro-1H-pyrido[4,3-b]indole]	–	–	–	–	58	–	6	42	58	–
Cc1ccc(C(C)(O)Cn2c3c(c4cc(Cl)ccc42)CN(C)CC3)cn1 (centres unmarked) [Compound 47, 1-(8-chloro-1,2,3,4-tetrahydro-2-methylpyrido[4,3-b]indol-5-yl)-2-(6-methylpyridin-3-yl)propan-2-ol]	82	81	84	–	39	–	–	–	–	48
Cc1ccc2c(c1)c1c(n2CC(O)c2ccc(C)nc2)CCN(C)C1 (centres unmarked) [Compound 48, 2-(2,8-dimethyl-3,4-dihydro-1H-pyrido[4,3-b]indol-5(2H)-yl)-1-(6-methylpyridin-3-yl)ethanol]	45	83	73	–	59	–	–	–	–	47
Cc1ccc2c(c1)c1c(n2CC(C)(O)c2ccc(C)nc2)CCN(C)C1 (centres unmarked) [Compound 52, 1-(1,2,3,4-tetrahydro-2,8-dimethylpyrido[4,3-b]indol-5-yl)-2-(6-methylpyridin-3-yl)propan-2-ol]	39	84	83	–	37	–	–	–	–	51
Cc1ccc2c(c1)c1c(n2CC(O)c2cccnc2)CCN(C)C1 (centres unmarked) [Compound 54, 2-(1,2,3,4-tetrahydro-2,8-dimethylpyrido[4,3-b]indol-5-yl)-1-(pyridin-3-yl)ethanol]	15	39	42	–	31	–	–	–	–	5
Cc1ccc2c(c1)c1c(n2CC(C)(O)c2ccc(F)cc2)CCN(C)C1 (centres unmarked) [Compound 55, 2-(4-fluorophenyl)-1-(1,2,3,4-tetrahydro-2,8-dimethylpyrido[4,3-b]indol-5-yl)propan-2-ol]	64	85	100	–	–	–	–	–	–	88
CN1CCc2c(c3cc(Cl)ccc3n2CC(O)c2cccnc2)C1 (centres unmarked) [Compound 56, 2-(8-chloro-1,2,3,4-tetrahydro-2-methylpyrido[4,3-b]indol-5-yl)-1-(pyridin-3-yl)ethanol]	43	65	68	–	62	–	–	–	–	26
COc1ccc(C(C)(O)Cn2c3c(c4cc(Cl)ccc42)CN(C)CC3)cc1 (centres unmarked) [Compound 57, 1-(8-chloro-1,2,3,4-tetrahydro-2-methylpyrido[4,3-b]indol-5-yl)-2-(4-methoxyphenyl)propan-2-ol]	84	70	95	–	68	–	–	–	–	82
COc1ccc(C(C)(O)Cn2c3c(c4cc(Cl)ccc42)CN(C)CC3)cc1F (centres unmarked) [Compound 59, 1-(8-chloro-1,2,3,4-tetrahydro-2-methylpyrido[4,3-b]indol-5-yl)-2-(3-fluoro-4-methoxyphenyl)propan-2-ol]	81	83	96	–	54	–	–	–	–	58
Cc1ccc2c(c1)c1c(n2CC(C)(O)c2cccnc2)CCN(C)C1 (centres unmarked) [Compound 60, 1-(1,2,3,4-tetrahydro-2,8-dimethylpyrido[4,3-b]indol-5-yl)-2-(pyridin-3-yl)propan-2-ol]	33	81	78	–	50	–	–	–	–	40
CN1CCc2c(c3cc(Cl)ccc3n2CC(C)(O)c2cccnc2)C1 (centres unmarked) [Compound 61, 1-(8-chloro-1,2,3,4-tetrahydro-2-methylpyrido[4,3-b]indol-5-yl)-2-(pyridin-3-yl)propan-2-ol]	87	76	77	–	65	–	–	–	–	41
Cc1ccc2c(c1)c1c(n2CC(C)(O)c2ccncc2)CCN(C)C1 (centres unmarked) [Compound 62, 1-(1,2,3,4-tetrahydro-2,8-dimethylpyrido[4,3-b]indol-5-yl)-2-(pyridin-4-yl)propan-2-ol]	82	57	88	–	43	–	–	–	–	43
CN1CCc2c(c3cc(Cl)ccc3n2CC(C)(O)c2ccncc2)C1 (centres unmarked) [Compound 63, 1-(8-chloro-1,2,3,4-tetrahydro-2-methylpyrido[4,3-b]indol-5-yl)-2-(pyridin-4-yl)propan-2-ol]	84	74	95	–	73	–	–	–	–	53
C/C(=C\n1c2c(c3cc(Cl)ccc31)CN(C)CC2)c1ccc(C)nc1 [Compound 89, (E)-8-chloro-2,3,4,5-tetrahydro-2-methyl-5-(2-(6-methylpyridin-3-yl)prop-1-enyl)-1H-pyrido[4,3-b]indole]	87	97	101	–	67	–	–	–	–	91
